Legend:
[1] = test system: CASOB (Cassia obtusifolia); assay: Preemergence herbicidal evaluation; type: in vivo, L.; conditions: rated 4-5 weeks after treatment
Outline: (§1)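 Visual 0-9 rating versus untreated control, taken four to five weeks post-treatment, scoring stand, vigor, malformation, size, chlorosis and overall appearance. Compound applied as aqueous acetone spray to freshly seeded soil cups, then kept under standard greenhouse care.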

[2] = test system: CHEAL (Chenopodium album); assay: Preemergence herbicidal evaluation; type: in vivo, L.; conditions: rated 4-5 weeks after treatment
Outline: as §1

[3] = test system: AMBEL (Ambrosia artemisifolia); assay: Preemergence herbicidal evaluation; type: in vivo, L.; conditions: rated 4-5 weeks after treatment
Outline: as §1

[4] = test system: TRZAWR (Wheat, Winter, cv Riband); assay: Postemergence herbicidal evaluation; type: in vivo, Triticum aestivum; conditions: postemergence
Outline: (§2)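 Visual 0–9 injury scores versus control plants, covering stand, vigour, malformation, size, chlorosis and general appearance, taken four to five weeks post-spray and averaged over replicate tests. Plants were sprayed at roughly two weeks old and held on greenhouse benches.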

SETVI (Setaria viridis) [5] = assay: Postemergence herbicidal evaluation; type: in vivo, (L.) Beau; conditions: postemergence
Outline: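 ~2-wk seedlings; spray 0.0040–1.000 kg/ha in 50/50 acetone/water + 0.5% TWEEN 20, 40 psi nozzle. Greenhouse hold; visual 0–9 rating vs control at 4–5 wk; multiple tests averaged.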

[6] = test system: CYPSE (Cyperus serotinus); assay: Flooded paddy, preemergence weed control; type: in vivo, Rottb.; conditions: rated 3-4 weeks after treatment, 0-9 rating scale
Outline: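 Herbicidal effect was scored visually on a 0–9 scale against an untreated control 3–4 weeks after treatment. Compounds were applied preemergence as 50/50 v/v aqueous/acetone mixtures into flood water (1.5–3 cm deep over silt loam), at roughly 0.0080 to 0.1250 kg/ha active ingredient.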

[7] = test system: MOOVA (Monochoria vaginalis); assay: Flooded paddy, preemergence weed control; type: in vivo, Presl.; conditions: rated 3-4 weeks after treatment, 0-9 rating scale
Outline: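 Scoring used a 0-9 visual scale relative to control. Before that, seeds or propagules were planted shallowly in silt loam and flooded to 1.5–3 cm, a depth maintained throughout, with greenhouse care during the test.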

ZEAMX (Corn, Field) = assay: Preemergence herbicidal evaluation; type: in vivo, Zea mays, L.; conditions: rated 4-5 weeks after treatment
[8] = test system: ABUTH (Abutilon theophrasti); assay: Postemergence herbicidal evaluation; type: in vivo, Medic.; conditions: postemergence
Outline: as §2

SETVI (Setaria viridis) [9] = assay: Preemergence herbicidal evaluation; type: in vivo, (L.) Beau; conditions: rated 4-5 weeks after treatment
Outline: as §1

[10] = test system: ECHCG (Echinochloa crus-galli); assay: Preemergence herbicidal evaluation; type: in vivo, (L.) Beau; conditions: rated 4-5 weeks after treatment
Outline: as §1

ORYSAT (Rice, Tebonnet) = assay: Flooded paddy, post-transplant rice tolerance; type: in vivo, Oryza sativa, (L.) Tebonnet; conditions: flooded paddy, post-transplant rice, rated 3-4 weeks after treatment, 0-9 rating scale
Outline: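 Seedlings aged ten days are transplanted in pairs into undrained pots of silt loam, which are then flooded to a depth of 1.5 to 3 cm. After herbicide application the pots are kept in a greenhouse with the flood maintained. Plants are rated 0-9 by visual comparison with controls.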

[11] = test system: IPOHE (Ipomoea hederacea); assay: Postemergence herbicidal evaluation; type: in vivo, (L.) Jacq.; conditions: postemergence
Outline: as §2

GALAP (Galium aparine) = assay: Postemergence herbicidal evaluation; type: in vivo; conditions: postemergence
Outline: as §2

[12] = test system: GLXMAW (Soybean, Williams); assay: Postemergence herbicidal evaluation; type: in vivo, Glycine max, (L.) Merr. cv Williams; conditions: postemergence
Outline: as §2

[13] = test system: ABUTH (Abutilon theophrasti); assay: Preemergence herbicidal evaluation; type: in vivo, Medic.; conditions: rated 4-5 weeks after treatment

CC1COC(c2nsc3ccc(-n4c(=O)cc(C(F)(F)F)n(C)c4=O)cc23)O1 (stereo not shown) [Compound 57, 1-methyl-3-[3-(4-methyl-1,3-dioxolan-2-yl)-1,2-benzisothiazol-5-yl]-6-(trifluoromethyl)uracil] was tested, and the “Preemergence herbicidal rating CASOB” value ([1]; Rate 0.0620 kg/ha) was 5.5, the “Preemergence herbicidal rating CASOB” value ([1]; Rate 0.1250 kg/ha) was 7.5 and the “Preemergence herbicidal rating CASOB” value ([1]; Rate 0.2500 kg/ha) was 9.0. For the same compound, the “Preemergence herbicidal rating CHEAL” value ([2]; Rate 0.0620 kg/ha) was 9.0, the “Preemergence herbicidal rating CHEAL” value ([2]; Rate 0.1250 kg/ha) was 9.0 and the “Preemergence herbicidal rating CHEAL” value ([2]; Rate 0.2500 kg/ha) was 9.0. The “Preemergence herbicidal rating AMBEL” value ([3]; Rate 0.0620 kg/ha) was 9.0, the “Preemergence herbicidal rating AMBEL” value ([3]; Rate 0.1250 kg/ha) was 9.0 and the “Preemergence herbicidal rating AMBEL” value ([3]; Rate 0.2500 kg/ha) was 9.0. The TRZAWR herbicidal rating ([4]; rate 0.0320 kg/ha) was 4.5, the TRZAWR herbicidal rating ([4]; rate 0.0620 kg/ha) was 5.0 and the SETVI herbicidal rating (SETVI (Setaria viridis) [5]; rate 0.0320 kg/ha) was 4.0. The SETVI herbicidal rating (SETVI (Setaria viridis) [5]; rate 0.0620 kg/ha) was 9.0, the “herbicidal rating, CYPSE” value ([6]; rate 0.0320 kg/ha) was 9.0 and the “herbicidal rating, CYPSE” value ([6]; rate 0.1250 kg/ha) was 9.0. The “herbicidal rating, MOOVA” value ([7]; rate 0.0320 kg/ha) was 9.0, the “herbicidal rating, MOOVA” value ([7]; rate 0.1250 kg/ha) was 9.0 and the “Preemergence herbicidal rating ZEAMX” value (ZEAMX (Corn, Field); Rate 0.0620 kg/ha) was 7.5. The “Preemergence herbicidal rating ZEAMX” value (ZEAMX (Corn, Field); Rate 0.1250 kg/ha) was 8.0, the “Preemergence herbicidal rating ZEAMX” value (ZEAMX (Corn, Field); Rate 0.2500 kg/ha) was 9.0 and the ABUTH herbicidal rating ([8]; rate 0.0320 kg/ha) was 9.0. For the same compound, the ABUTH herbicidal rating ([8]; rate 0.0620 kg/ha) was 9.0, the “Preemergence herbicidal rating SETVI” value (SETVI (Setaria viridis) [9]; Rate 0.0620 kg/ha) was 9.0 and the “Preemergence herbicidal rating SETVI” value (SETVI (Setaria viridis) [9]; Rate 0.1250 kg/ha) was 9.0. For the same compound, the “Preemergence herbicidal rating SETVI” value (SETVI (Setaria viridis) [9]; Rate 0.2500 kg/ha) was 9.0, the “Preemergence herbicidal rating ECHCG” value ([10]; Rate 0.0620 kg/ha) was 9.0 and the “Preemergence herbicidal rating ECHCG” value ([10]; Rate 0.1250 kg/ha) was 9.0. For the same compound, the “Preemergence herbicidal rating ECHCG” value ([10]; Rate 0.2500 kg/ha) was 9.0, the “herbicidal rating, ORYSAT (rice tolerance)” value (“herbicidal rating, ORYSAT” below) (ORYSAT (Rice, Tebonnet); rate 0.0080 kg/ha) was 3.0 and the “herbicidal rating, ORYSAT” value (ORYSAT (Rice, Tebonnet); rate 0.0320 kg/ha) was 8.0. For the same compound, the “herbicidal rating, ORYSAT” value (ORYSAT (Rice, Tebonnet); rate 0.1250 kg/ha) was 9.0, the IPOHE herbicidal rating ([11]; rate 0.0320 kg/ha) was 9.0 and the IPOHE herbicidal rating ([11]; rate 0.0620 kg/ha) was 9.0. It also gave a GALAP herbicidal rating (GALAP (Galium aparine); rate 0.0320 kg/ha) of 6.0, a GALAP herbicidal rating (GALAP (Galium aparine); rate 0.0620 kg/ha) of 9.0 and a GLXMAW herbicidal rating ([12]; rate 0.0320 kg/ha) of 7.0. The GLXMAW herbicidal rating ([12]; rate 0.0620 kg/ha) was 8.5, the “Preemergence herbicidal rating ABUTH” value ([13]; Rate 0.0620 kg/ha) was 9.0 and the “Preemergence herbicidal rating ABUTH” value ([13]; Rate 0.1250 kg/ha) was 9.0. The “Preemergence herbicidal rating ABUTH” value ([13]; Rate 0.2500 kg/ha) was 9.0.
